Results reported in patent US7767707B2, “Fused pyrazolyl compounds having an aminoalkylcarbonyl group” (Yung Shin Pharm. Ind. Co., Ltd., priority 2007, dated 2010).

Test system: NCI H-226 cells
Assay: Cytotoxicity MTT assay against NCI H-226 cells
Type: cell-based
Conditions: NCI H-226 cells (4 × 10^4), 72 hrs treatment, mean ± S.D. of three experiments
Experimental: The target compound 5, 6 and related succinate (A), glutamate (B) derivatives were evaluated in a MTT assay against NCI H226 cells, and the results are shown in Table 1.
The NCI H-226 cells were maintained in RPMI-1640 medium supplemented with 10% fetal bovine serum (GIBCO/BRL), penicillin (100 unit/mL)/streptomycin (100 μg/mL) (GIBCO/BRL) and 1% L-glutamine (GIBCO/BRL) at 37° C. in a humidified atmosphere containing 5% CO2. Logarithmically growing tumor cells were used for all experiments.
The cytotoxicity was assessed using MTT assay.^1 NCI H-226 cells (4×10^4) were treated separately with compounds A, B, 5, and 6 for 72 h. After treatment, the cells were collected, washed with cold PBS, and then added 10 μL of MTT solution (5 mg/mL)(Sigma) with 50 μL of cells suspension in HBSS into 96-well plate and incubated them at 37° C. in the dark for 2 h. Treatment of living cells with MTT produces a dark blue formazan product, whereas no such staining is observed in dead cells. The formazan product was dissolved by adding 140 μL DMSO and then the absorbance was measured on an ELISA reader at a best wavelength of 570 nm.
Values are expression as the mean ±S.D. of three independent experiments. Student's t tests were used to assess the statistical significance of the differences, with “p” values of less than 0.05 being considered statistically significant.

## NCC(=O)OCc1ccc(-c2nn(Cc3ccccc3)c3ccccc23)o1 [Compound 5]
Conc. 0.10 μM
  MTT %: 85.8 ± 1.7%
Conc. 1.0 μM
  MTT %: 18.5 ± 3.9%
Conc. 10.0 μM
  MTT %: 0%
